These results are taken from patent publication US12319672B2, “Alpha-D-galactopyranoside derivatives” (Idorsia Pharmaceuticals Ltd, priority 2019, dated 2025).

In one assay the target is human Gal-3 (hGal-3) (Homo sapiens (Human), UniProt P17931). Nature of the assay: Competitive binding assay: binding of biotinylated hGal-3 to microplate-adsorbed asialofetuin (ASF). Particulars: Activity on hGal-3; mean values of several measurements. Put shortly:
(§1)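 Biotin-hGal-3/hGal-1 300-1000 ng/mL + cpd (DMSO dilutions) on ASF-coated plate, 3 h 4° C; wash; SA-HRP 80 ng/mL 1 h 4° C; wash; ABTS. IC50 = mean of several runs. hGal-1 preferably Cys→Ser (all six) mutant.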

A further assay deals with human Gal-1 (hGal-1). Nature of the assay: Competitive binding assay: binding of biotinylated hGal-1 to microplate-adsorbed asialofetuin (ASF). Particulars: Activities on hGal-1; mean values of several measurements. Put shortly:
as §1

One may read the IC50 as the concentration that gives 50% inhibition. A lower IC50 goes with higher potency.

human Gal-1 (hGal-1), sequence (P09382 2-135 limits assumed): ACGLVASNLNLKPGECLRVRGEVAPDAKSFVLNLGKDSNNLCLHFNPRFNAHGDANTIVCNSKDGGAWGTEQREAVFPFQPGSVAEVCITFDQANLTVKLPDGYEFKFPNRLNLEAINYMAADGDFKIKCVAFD
human Gal-3 (hGal-3), sequence (P17931 whole entry): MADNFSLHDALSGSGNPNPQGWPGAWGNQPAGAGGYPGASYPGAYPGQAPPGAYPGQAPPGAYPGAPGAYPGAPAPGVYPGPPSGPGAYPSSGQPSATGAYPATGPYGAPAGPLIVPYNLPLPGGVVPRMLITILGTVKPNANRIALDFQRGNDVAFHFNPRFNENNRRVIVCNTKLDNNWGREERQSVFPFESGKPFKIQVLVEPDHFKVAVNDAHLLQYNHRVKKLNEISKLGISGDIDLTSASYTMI

On to `CO[C@@H]1[C@@H](n2cc(-c3cc(F)c(F)c(F)c3)nn2)[C@@H](O)[C@@H](CO)O[C@@H]1Cc1cn(C2CCCCC2)nn1` [Example 4.30, (2R,3R,4S,5R,6R)-6-((1-cyclohexyl-1H-1,2,3-triazol-4-yl)methyl)-2-(hydroxymethyl)-5-methoxy-4-(4-(3,4,5-trifluorophenyl)-1H-1,2,3-triazol-1-yl)tetrahydro-2H-pyran-3-ol], for which the IC50 turned out to be 85 nM at human Gal-3 (hGal-3) and 2920 nM on human Gal-1 (hGal-1).

Turning to `CO[C@@H]1[C@@H](n2cc(-c3cc(F)c(F)c(F)c3)nn2)[C@@H](O)[C@@H](CO)O[C@@H]1Cc1cn(C2CCS(=O)(=NC(C)C)CC2)nn1` (stereo partly drawn) [Example 4.31, 4-(4-(((2R,3R,4S,5R,6R)-5-hydroxy-6-(hydroxymethyl)-3-methoxy-4-(4-(3,4,5-trifluorophenyl)-1H-1,2,3-triazol-1-yl)tetrahydro-2H-pyran-2-yl)methyl)-1H-1,2,3-triazol-1-yl)-1-(isopropylimino)hexahydro-1l6-thiopyran 1-oxide], the IC50 on human Gal-3 (hGal-3) came to 27 nM; at human Gal-1 (hGal-1), 320 nM.

With `CO[C@@H]1[C@@H](n2cc(-c3cc(F)c(F)c(F)c3)nn2)[C@@H](O)[C@@H](CO)O[C@@H]1Cn1cc(C2CCN(C(=O)NC3CC3)CC2)nn1` [Example 4.32, N-cyclopropyl-4-(1-(((2R,3R,4S,5R,6R)-5-hydroxy-6-(hydroxymethyl)-3-methoxy-4-(4-(3,4,5-trifluorophenyl)-1H-1,2,3-triazol-1-yl)tetrahydro-2H-pyran-2-yl)methyl)-1H-1,2,3-triazol-4-yl)piperidine-1-carboxamide], the IC50 was 65 nM on human Gal-3 (hGal-3) and 884 nM at human Gal-1 (hGal-1).

As to `CO[C@@H]1[C@@H](n2cc(-c3cc(F)c(F)c(F)c3)nn2)[C@@H](O)[C@@H](CO)O[C@@H]1Cc1cn(C2CCS(=O)(=NC3CCC(F)(F)CC3)CC2)nn1` (stereo partly drawn) [Example 4.33, 1-((4,4-difluorocyclohexyl)imino)-4-(4-(((2R,3R,4S,5R,6R)-5-hydroxy-6-(hydroxymethyl)-3-methoxy-4-(4-(3,4,5-trifluorophenyl)-1H-1,2,3-triazol-1-yl)tetrahydro-2H-pyran-2-yl)methyl)-1H-1,2,3-triazol-1-yl)hexahydro-1l6-thiopyran 1-oxide], the IC50 was 71 nM at human Gal-3 (hGal-3) and 220 nM on human Gal-1 (hGal-1).

For the compound `CO[C@@H]1[C@@H](n2cc(-c3ccc(Cl)c(F)c3)nn2)[C@@H](O)[C@@H](CO)O[C@@H]1Cc1cn(C2CCN(C(=O)OCc3ccccc3)CC2)nn1` [Example 4.34, benzyl 4-(4-(((2R,3R,4S,5R,6R)-4-(4-(4-chloro-3-fluorophenyl)-1H-1,2,3-triazol-1-yl)-5-hydroxy-6-(hydroxymethyl)-3-methoxytetrahydro-2H-pyran-2-yl)methyl)-1H-1,2,3-triazol-1-yl)piperidine-1-carboxylate], the IC50 on human Gal-3 (hGal-3) is 25 nM; at human Gal-1 (hGal-1) it was 430 nM.

For `CO[C@@H]1[C@@H](n2cc(-c3cccc(F)c3)nn2)[C@@H](O)[C@@H](CO)O[C@@H]1Cc1cn(C2CCN(C(=O)OCc3ccccc3)CC2)nn1` [Example 4.35, benzyl 4-(4-(((2R,3R,4S,5R,6R)-4-(4-(3-fluorophenyl)-1H-1,2,3-triazol-1-yl)-5-hydroxy-6-(hydroxymethyl)-3-methoxytetrahydro-2H-pyran-2-yl)methyl)-1H-1,2,3-triazol-1-yl)piperidine-1-carboxylate], the IC50 is 40 nM at human Gal-3 (hGal-3) and 150 nM at human Gal-1 (hGal-1).

`CO[C@@H]1[C@@H](n2cc(-c3ccc(Br)c(F)c3)nn2)[C@@H](O)[C@@H](CO)O[C@@H]1Cc1cn(C2CCN(C(=O)OCc3ccccc3)CC2)nn1` [Example 4.36, benzyl 4-(4-(((2R,3R,4S,5R,6R)-4-(4-(4-bromo-3-fluorophenyl)-1H-1,2,3-triazol-1-yl)-5-hydroxy-6-(hydroxymethyl)-3-methoxytetrahydro-2H-pyran-2-yl)methyl)-1H-1,2,3-triazol-1-yl)piperidine-1-carboxylate]: the IC50 worked out at 19 nM at human Gal-3 (hGal-3) and 570 nM at human Gal-1 (hGal-1).
